Source: BindingDB's records for doi:10.1021/jm030905y (Vrije Universiteit, 2003)

Target: Histamine H4 receptor (Homo sapiens, UniProt Q9H3N8)
Assay: Inhibitory activity measured by [3H]- N alpha- methyl-histamine binding to membranes of SK-N-MC cells expressing the human Histamine H4 receptor

Chain of Histamine H4 receptor (Q9H3N8 whole entry): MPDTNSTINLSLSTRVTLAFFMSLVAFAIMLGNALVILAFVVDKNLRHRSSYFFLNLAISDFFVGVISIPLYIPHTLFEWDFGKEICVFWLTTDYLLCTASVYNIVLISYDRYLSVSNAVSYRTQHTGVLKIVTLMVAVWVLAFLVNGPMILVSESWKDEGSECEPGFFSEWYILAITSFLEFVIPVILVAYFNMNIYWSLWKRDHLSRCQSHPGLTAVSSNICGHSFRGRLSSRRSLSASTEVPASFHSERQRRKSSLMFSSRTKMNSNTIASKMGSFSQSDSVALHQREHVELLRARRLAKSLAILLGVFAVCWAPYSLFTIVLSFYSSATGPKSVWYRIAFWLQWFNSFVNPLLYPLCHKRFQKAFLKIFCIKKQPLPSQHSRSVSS

| Structure (SMILES) | Ki |
| --- | --- |
| NCCCc1c[nH]cn1 [Homohistamine] | 34.7 nM |
| C[C@@H](N)Cc1c[nH]cn1 [CHEBI:73337] | 239 nM |
